Measured values published in PMC6024778 (Viruses, 2018).
Where a name gives a salt, the structure may show the parent alone. Read-outs that look alike come from different tables or passages of the source.

Assays:
MERS-CoV [1] = assay: microbe, parasite or virus in culture; type: cell-based
in vitro [2] = conditions: human
[3] = system: MERS-CoV nucleocapsid (N) protein; type: cell-based
MERS-CoV [4] = type: cell-based
MERS-CoV [5] = type: cell-based; remark: listed apart in the source
MERS-CoV [6] = type: cell-based; remark: listed apart in the source
in vitro [7] = conditions: cat
MERS-CoV [8] = type: cell-based; remark: listed apart in the source
[9] = system: Feline infectious peritonitis virus (FIPV); assay: microbe, parasite or virus in culture; type: cell-based; conditions: Alphacoronavirus 1
MERS-CoV [10] = type: cell-based; remark: listed apart in the source
rMERS-CoV = assay: microbe, parasite or virus in culture; type: cell-based, MERS-CoV; conditions: Middle East respiratory syndrome-related coronavirus, Huh-7, 72 h
HCoV-OC43 = assay: microbe, parasite or virus in culture; type: cell-based, betacoronavirus OC43 strain; conditions: Betacoronavirus 1, OC43
HCoV-229E = assay: microbe, parasite or virus in culture; type: cell-based; conditions: Human coronavirus 229E
[11] = Middle East respiratory syndrome-related coronavirus, Huh-7, 72 h

SMILES | EC50 (MERS-CoV [1]; read-out: EC50) [µM] | CC50 (in vitro [2]) [µM] | EC50 (MERS-CoV [1]; [11]) [µM] | other results
CC(=O)c1ccc2c(c1)N(CCCN1CCN(CCO)CC1)c1ccccc1S2 [Acetophenazine maleate] | 11.2 ± 5 |  |  | CC50 (Huh-7 cells): 23.6 ± 3.8 µM
CCN(CC)Cc1cc(Nc2ccnc3cc(Cl)ccc23)ccc1O [Amodiaquine dihydrochloride dehydrate] | 2.4 ± 0.7 |  |  | 
CCN(CC)Cc1cc(Nc2ccnc3cc(Cl)ccc23)ccc1O [Amodiaquine dihydrochloride] | 2.1 ± 0.7 |  |  | 
CCN(CC)CCCC(C)Nc1ccnc2cc(Cl)ccc12 (stereo not shown) [Chloroquine diphosphate] |  | > 50 | 12 ± 3 | 
CN(C)CC/C=C1\c2ccccc2CSc2ccccc21 [Dosulepin hydrochloride] |  | 28.9 | 3.4 | 
Nc1ccn([C@@H]2O[C@H](CO)[C@@H](O)C2(F)F)c(=O)n1 [Gemcitabine, gemcitabine hydrochloride] |  |  | 1.2 | viral N protein expression [3]: completely abolished; production of infectious MERS-CoV particles (MERS-CoV [4]): completely abolished
CCN(CCO)CCCC(C)Nc1ccnc2cc(Cl)ccc12 (stereo not shown) [Hydroxychloroquine sulfate] |  | > 50 | 13.3 ± 2.1 | 
OCCOCCN1CCN(C(c2ccccc2)c2ccc(Cl)cc2)CC1 (stereo not shown) [Hydroxyzine pamoate] |  | > 50 | 14.4 ± 3.4 | 
COc1ccc2c(c1)N(C[C@H](C)CN(C)C)c1ccccc1S2 [Methotrimeprazine maleate salt] | 2.5 |  |  | CC50 (Huh-7 cells): 24.5 µM
O=C(Nc1ccncc1)c1cc([N+](=O)[O-])ccc1Cl [N1-(4-pyridyl)-2-chloro-5-nitrobenzamide] |  | > 50 | 10.5 ± 0.3 | 
COc1ccc(C2=N[C@@H](c3ccc(Cl)cc3)[C@@H](c3ccc(Cl)cc3)N2C(=O)N2CCNC(=O)C2)c(OC(C)C)c1 [Nutlin-3] |  | 26.8 ± 1.6 | 6.9 ± 1.4 | 
CN1CCN(CCOc2cc(OC3CCOCC3)c3c(Nc4c(Cl)ccc5c4OCO5)ncnc3c2)CC1 [Saracatinib] |  |  | 2.9 ± 0.6 | intracellular viral genomic RNA and mRNA expressions (MERS-CoV [5]): significant decrease; syntheses of intracellular viral genomic RNA and mRNAs (MERS-CoV [5]): severely affected; viral genomic RNA and mRNA syntheses (MERS-CoV [5]): near complete inhibition; intracellular viral genomic (ORF1a) and mRNA (upE) syntheses (MERS-CoV [6]): near complete inhibition; CC50 (in vitro [7]): > 50 µM; reduction in infectious virus titers (MERS-CoV [8]): ~ 80%; selectivity index (SI) (MERS-CoV [1]): > 17; EC50 [9]: 7 µM; antiviral activity (viral titer) (MERS-CoV [10]): less effective; reduction of MERS-CoV titer (MERS-CoV [10]): more pronounced; viral titer (MERS-CoV [10]): marked reduction; EC50 (rMERS-CoV): 9.3 µM; CC50 (Huh-7 cells; human): 57 ± 5.5 µM; EC50 (HCoV-OC43): 5.1 µM; reduction of viral titer (MERS-CoV [4]): marginal reduction; EC50 (HCoV-229E): 2.4 µM
CN1CCN(c2nc(C3=C(c4c[nH]c5ccccc45)C(=O)NC3=O)c3ccccc3n2)CC1 [Sotrastaurin] |  | > 50 | ~9.7 | 
